# Where two headings read alike, the source gives them in different places.
# Key:
# Format in all cases: cell-based
# [1] = molecular target: T1, BCRP (ABCG2), MCF-7 M100 breast cancer cells (Homo sapiens, UniProt Q9UNQ0); assay: Hoechst 33342 assay for BCRP modulation; conditions: concentration dependent
# T1 construct: endogenous in cells; host or cells: MCF-7 M100 breast cancer cells
# Protocol: Ability of BCRP to efflux nuclear stain Hoechst 33342 was used to identify the molecules which interfere with BCRP transporter activity. About 14000 cells of MCF-7 M100 breast cancer cells were seeded in each well in 96 well plates and allowed to grow until confluency for 4-5 days. Then media was replaced with phenol red free RPMI media and cells were treated with indicated concentrations of TPH104s and 5 μg/mL of Hoechst 33342. Fluorescence measured after 60 minutes with excitation at 361/20 nm and at emission 497/20 nm using the BioTek Cytation 5 imaging multi-mode reader (Bio-Tek, Winooski, VT). DMSO (0.5% v/v) was used as the vehicle, and 0.5 μM of BCRP inhibitor, Ko143 was used as a positive control and 15 μM of P-gp modulator, verapamil was used as negative control.
# [2] = tested on: MCF-7 (non-TNBC cell line); assay: MTT cell viability assay, MCF-7; conditions: read-out: IC50 ± SD, MCF-7
# Protocol: The following cancer and non-cancer cell lines were used in the initial cytotoxicity screening of the TPH104 compounds: triple negative breast cancer (TNBC): MDA-MB468, MDA-MB 231, and BT-20; non-TNBC: MCF-7 and ZR-75-1; ovarian: Ov2008; prostate: DU145; colon: HCT-116, S1, and LOVO; lung: H460; normal kidney: HEK-293; normal breast: HMEC; and normal colon: CRL-1459. All cells were cultured in Dulbecco's modified Eagle medium (DMEM), supplemented with 10% fetal bovine serum (FBS), and 1% penicillin/streptomycin (P/S). Cells were allowed to grow as adherent monolayers in T25 flasks in a humidified incubator with 5% CO2 at 37° C. for a period of 24 h, unless otherwise specified for certain experiments.
# The MTT assay was used to determine the cytotoxicity of all of the compounds. Briefly, in a 96-well flat-bottom cell culture plate, the cells were seeded at a density between 3-5×10^3 cells/well (180 μl in each well) and incubated for 24 h (a hemocytometer was used for cell counting). The next day, the cells were incubated with different concentrations of the nine compounds (0, 0.1, 0.3, 1, 3, 10, 30, and 100 μM) for 72 h. After 72 h, 20 μl of 5 mg/ml of 3-(4,5-dimethylthiazol-2-yl)-2,5-diphenyltetrazolium bromide (MTT) was added to the plate and incubated with the cells for 3 h at 37° C. In this experiment, the living cells will reduce the soluble MTT dye to non-soluble purple formazan crystals. Following incubation, the media containing MTT removed via suction and 100 μL of 100% dimethyl sulfoxide (DMSO) was added to dissolve the formazan crystals. Subsequently, the plate was shaken for 2 minutes and the absorbance was measured at a wavelength of 570 nm using a SpectraMax iD3 Multi-Mode Microplate Reader (Molecular Devices, Sunnyvale, CA). The IC50 values of each compound were calculated and used to determine the selectivity ratio (IC50 in normal cells/IC50 in cancer cells) of each compound as previously described. Based on the results obtained from these experiments, the compound TPH104, which had the lowest IC50 value, was selected for further experiments.
# [3] = tested on: MDA-MB468, BT-20, and MDA-MB231; assay: Trans-well migration assay; conditions: 1 μM or 10 μM, 24 h
# Protocol: This assay was used to assess the migration and invasiveness of TNBC cells. In this assay, 24 well-plates with 24 well inserts of 8 μm pore size, (Corning, Cambridge, MA, USA), were used. The inserts were pre-coated with growth-factor reduced matrigel (1:40) and added to each well, forming two chambers (upper and lower). Briefly, cells were seeded at a density of 10,000 cells/well in the upper chamber of the inserts. The lower chamber was filled with cell-free DMEM medium supplemented with 10% FBS and 1% P/S. The next day, cells were incubated with 0.1, 1, or 10 μM of TPH104 or vehicle for 24 h to allow the cells to migrate through the porous membrane into the lower chamber. Following incubation, cotton swabs were used to wipe away the non-migrated, stationary cells in the upper chamber. The migrated cells were fixed with 100% methanol and stained with 0.1% crystal violet dye. The migrated cells were then viewed, pictured and counted using an EVOS-FLC microscope as previously reported.
# MDA-MB468 and MDA-MB231 = assay: Cell cycle analysis (PI, flow cytometry); conditions: 0.5, 1, 2 μM, 12 h
# Protocol: The cell cycle analysis was performed to evaluate the effect of TPH104 on the normal cell cycle in the TNBC cell lines (i.e. MDA-MB 468, MDA-MB231 and BT-20). Cells were plated in a 6-well plate at a suitable density as previously described and incubated overnight to allow for cell attachment. The following day, cells were incubated with different TPH104 concentrations (0.5, 1, or 2 μM) or vehicle for 12 h. The cells were harvested by trypsinization and collected in individual test tubes. Subsequently, cells were washed 3× with ice cold PBS and fixed with 70% ethanol for 30 minutes. Following fixation, cells were again washed 3× with intermittent centrifugation at 2000 rpm for 5 minutes and incubated with 100 μl RNAse (from a 100 μg/ml stock) (to ensure that only DNA was stained). Two hundred μl of PI (from a 50 μg/ml stock solution) was added to each test tube and cells were stain cells for at least 15 minutes on ice. Finally, a FACS Calibur flow cytometer (BD Biosciences, San Jose, CA) was used to detect the distribution of the cells following incubation with vehicle or TPH104. FlowJo v10.2 software from FlowJo LLC (Ashland, OR) was used for data analysis.
# [4] = tested on: MDA-MB231, MDA-MB468, and BT-20; assay: Cell colony formation assay; conditions: vs vehicle
# Protocol: This assay was used to measure the size and rate of colony formation for TNBC cells, with or without TPH104, as previously reported. Briefly, in a 6-well cell culture plate, cells were seeded at a density of 250,000 cells/well and allowed to grow/attach overnight. The next day, the cells were incubated with different concentration of TPH104 (0.1, 1, or 10 μM) or vehicle and incubated for 12 h at 37° C. Following incubation, the cells were harvested, counted, and reseeded at a density of 500-800 cells/well (1 ml in each well), in a new 6-well plate, with complete medium for 10 days. The medium was changed every 2 days in order to prevent cell starvation. On the 10th day, the colonies were fixed with absolute methanol at room temperature for 30 minutes. Subsequently, cells were stained with 0.1% crystal violet dye (Sigma, USA) for an additional 30 minutes. Finally, the fixed and stained colonies were viewed, pictured (at 4, 10, and 20×) and counted using an EVOS-FLC microscope (Thermo Fisher Scientific, Wayne, MI, USA). The following equation was used to calculate the colony formation rate: Colony formation rate=number of colonies formed/number of seeded cells (500)×100% Trans-Well Migration Assay
# T1 sequence (Q9UNQ0 whole entry): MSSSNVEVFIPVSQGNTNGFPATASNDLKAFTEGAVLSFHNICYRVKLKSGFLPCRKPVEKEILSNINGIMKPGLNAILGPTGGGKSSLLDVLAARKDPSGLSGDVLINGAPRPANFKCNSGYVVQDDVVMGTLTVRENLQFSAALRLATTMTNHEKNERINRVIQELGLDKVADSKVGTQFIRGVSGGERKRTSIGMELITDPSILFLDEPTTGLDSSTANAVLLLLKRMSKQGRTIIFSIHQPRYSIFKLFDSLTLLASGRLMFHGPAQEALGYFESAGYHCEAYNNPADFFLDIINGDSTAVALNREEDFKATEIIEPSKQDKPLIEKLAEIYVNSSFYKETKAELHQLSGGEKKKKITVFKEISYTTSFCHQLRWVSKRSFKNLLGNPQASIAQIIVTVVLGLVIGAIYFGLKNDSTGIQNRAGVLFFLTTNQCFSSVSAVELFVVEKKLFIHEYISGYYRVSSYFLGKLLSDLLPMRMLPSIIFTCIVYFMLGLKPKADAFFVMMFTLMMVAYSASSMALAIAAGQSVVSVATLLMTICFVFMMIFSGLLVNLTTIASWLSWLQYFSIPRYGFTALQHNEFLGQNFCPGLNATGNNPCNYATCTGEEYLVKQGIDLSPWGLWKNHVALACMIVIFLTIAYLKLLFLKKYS
smiles,measurement,setting,value
COc1ccc(O)c(/C=N/Nc2ncnc3scc(-c4ccc(C)cc4)c23)c1 [TPH104],efflux function of ABCG2,[1],blocking the efflux function
same,IC50,[2]; 72 h,3.84 ± 1.36 µM
same,IC50,"[2]; Homo sapiens, MCF7, 72 h",3.8 µM
same,migration of TNBC cells,[3],significantly decreased
same,level of cells arrested in the S phase,MDA-MB468 and MDA-MB231,significantly increased
same,number of cells in the G1 phase,MDA-MB468 and MDA-MB231,significant reduction
same,colony formation rate,"[4]; 0.1, 1, 10 μM for 12 h",significantly inhibited
same,number and size of the colonies formed,"[4]; 1 and 10 μM, all 3 TNBC cell lines",significantly decreased

# — US12390467B2, “Necroptosis inducers or autophagy inhibitors or a combination thereof” (The University of Toledo, priority 2018, dated 2025)
